Measurements published in US4426453A, “Derivatives of iodothyronine compounds and their use in an assay for the free iodothyronine compounds” (Amersham International Limited, priority 1980, dated 1984).
“Also recorded” adds a separate entry of the source. Each block holds one compound with its values, some of them ahead of it.

Assays:
TBPA (prealbumin) = molecular target: T1, TBPA (prealbumin) (Homo sapiens, UniProt P02766); assay: T4.EDTA binding strength to prealbumin (TBPA) relative to T4 (displacement of 125I-T4 tracer from TBPA:anti-TBPA binding reagent)
T1 construct: from tissue; host or cells: normal serum
Procedure: (§1) Pre-precipitated antiserum (binding reagent) to either TBG or prealbumin is incubated with a serum source of TBG or prealbumin, so that the T4 binding protein is isolated on the binding reagent. Tracer ^125 I-T4 is added to the resulting complex and is thus purified. The displacement of the tracer ^125 I-T4, by varying concentrations of T4 and T4.EDTA, from the TBG or prealbumin, can then be studied. The results can be used to estimate the differences in binding affinity between T4 and T4.EDTA for the two T4 binding proteins.
This is prepared as for the anti-TBG binding reagent except that equal volumes of 30% donkey anti-rabbit second antibody and 4% TBPA antiserum solutions were mixed to give final concentrations of 15% donkey anti-rabbit, and 2% anti-TBPA.
600 μl normal serum and 20 ml anti-TBPA binding reagent are mixed for 1 hour at room temperature. […]
(§2) Thus the percentage bound of the tracer at different T4 and T4.EDTA concentrations, can be determined in the two systems.
(§3) Tracer percentage bound is plotted against T4 and T4.EDTA concentrations, and from these curves an estimate of the non-specific binding can be made. The data can then be re-calculated, using this blank correction, plotted, and the T4 and T4.EDTA concentrations corresponding to a range of tracer percentage bound values can be read off the curve. […]

TBG [1] = molecular target: T2, TBG (Homo sapiens, UniProt P05543); assay: T4.EDTA binding strength to TBG relative to T4 (displacement of 125I-T4 tracer from TBG:anti-TBG binding reagent); design: 1 ml of resin stripped human serum; from tissue; host or cells: human serum (resin stripped); details: for binding to TBG (in words): qualitative
T2 sequence (P05543 21-415): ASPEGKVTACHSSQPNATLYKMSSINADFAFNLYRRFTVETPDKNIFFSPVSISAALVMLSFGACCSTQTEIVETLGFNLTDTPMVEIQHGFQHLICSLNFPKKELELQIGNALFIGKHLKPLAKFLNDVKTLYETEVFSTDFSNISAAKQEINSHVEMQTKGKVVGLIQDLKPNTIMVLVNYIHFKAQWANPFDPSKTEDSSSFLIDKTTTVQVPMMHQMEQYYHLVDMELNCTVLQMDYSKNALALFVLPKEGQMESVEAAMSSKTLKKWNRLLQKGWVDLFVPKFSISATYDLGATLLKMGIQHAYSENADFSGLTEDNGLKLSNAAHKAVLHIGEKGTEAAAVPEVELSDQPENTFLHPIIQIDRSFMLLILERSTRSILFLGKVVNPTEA
Procedure: as §1
15% Donkey anti-sheep in phosphate
2% TBG Antiserum buffer + 0.05% BSA
Equal quantities of the above solutions are mixed and rotated overnight at 4° so that the final concentrations in the binding reagent are 7.5% donkey anti-sheep, and 1% TBG antiserum. Centrifugation at 900 rpm, decantation and resuspension in fresh buffer are carried out twice to wash the reagent.
1 ml of resin stripped human serum and 20 ml of the above binding reagents are mixed for 1 hour at room temperature. Centrifugation, decantation and resuspension in fresh buffer (phosphate+0.05% BSA) are carried out twice.
Typically 10 ml of TBG:anti-TBG binding reagents, 28 ml of phosphate buffer+0.05% BSA, and 2 ml of ^125 I-T4 tracer solution (0.1 μCi high specific activity T4 per ml in phosphate buffer+0.05% BSA) are mixed for 1 hour at room temperature. Centrifugation, decantation and resuspension in fresh buffer (phosphate+0.05% BSA) are carried out twice. Once prepared the tracer T4:TBG:anti-TBG binding reagent is used immediately.
The stock solutions are diluted in phosphate buffer+0.005% BSA. […]
as §2, §3

T4 antiserum = assay: Affinity with respect to T4 antiserum; type: binding
[2] = Stability in water / assay buffer; type: physicochemical; details: qualitative
TBG [3] = molecular target: T2, TBG; details: blood stream of human beings; cited from earlier work
TBPA = details: blood stream of human beings; cited from earlier work
Albumin = details: blood stream of human beings; cited from earlier work
[4] = tested on: Antisera (having low T4 cross reactivity); assay: Binding to antisera having low T4 cross reactivity; details: antisera with low T4 cross reactivity; compared with T3
[5] = tested on: solid phase T4 antibody (T4-specific antiserum on latex particles); assay: Free-T4 assay using T4.EDTA tracer: standard curve; type: binding; details: 37° C., one hour
Source text: T4.EDTA was labelled with ^125 I by an exchange reaction using sodium iodide-^125 I and chloramine-T. The specific activity obtained was typically 500 millicuries per milligram, and was used as a working concentration of 0.13 microcuries per […] in a 60 millimolar phosphate buffer, pH 7.4, containing 0.9% sodium chloride, 0.9% bovine serum albumin and 0.1% sodium azide.
A solid phase antibody was used consisting of T4-specific antiserum bound on to micron sized latex particles such that the suspension contained 0.66 milligram of latex particles per milliliter and antibodies from 0.5 microliters of T4-specific antiserum per milligram of latex. The buffer was 10 millimolar phosphate, pH 7.4 containing 0.1% sodium azide.
A set of 6 human serum pools were prepared by standard techniques to contain free-T4 concentrations ranging from zero to approximately 10 nanograms per deciliter. These standards were calibrated with reference to an equilibrium dialysis free T4 assay.
The free T4 assay was set up in polystyrene assay tubes following this protocol:
100 μl serum standard or unknown serum sample
500 μl ^125 I-T4.EDTA tracer solution.
500 μl solid phase T4 antibody suspension.
The assay tubes were vortex mixed, and incubated at 37° C. in a water bath for one hour. The tubes were centrifuged at 1500 g for 20 minutes and the supernatant liquid decanted. The readioactivity of the precipitate was measured.

[6] = % of the affinity constant of T4, 37° C.

affinity constant for TBPA relative to that of T4 (TBPA (prealbumin); [6]): 2.7%
binding to TBPA (in words) (TBPA (prealbumin); qualitative): binds only very weakly to TBG and TBPA
affinity constant for TBG relative to that of T4 (TBG [1]; [6]): 3.5%
stability in water / usable time after dilution into the assay buffer [2]: stable in water
Compound: O=C(O)CN(CCN(CC(=O)O)CC(=O)NC(Cc1cc(I)c(Oc2cc(I)c(O)c(I)c2)c(I)c1)C(=O)O)CC(=O)O (stereo not shown) [T4.EDTA, 1-{3',5'-di-iodo-4'(3",5"-di-iodo-4"-Hydroxyphenoxy)phenyl}2-carboxy-6,9-dicarboxymethyl-4-oxo-3,6,9-triazaundecan-11-oic acid]
binding to TBG (in words) (TBG [1]): binds only very weakly to TBG; also recorded: shows no significant tendency to bind to TBG
affinity constant with respect to T4 antiserum relative to that of T4 (T4 antiserum; % of that of T4): 90.4%
binding to T4 antiserum (in words) (T4 antiserum; relative to T4): binds almost as strongly to T4 antiserum as does T4 itself

binding to TBG (in words) (TBG [1]): binds appreciably to TBG
Compound: COC(=O)[C@H](Cc1cc(I)c(Oc2cc(I)c(O)c(I)c2)c(I)c1)NC(C)=O [N-Acetyl-thyroxine-methyl ester, N-acetyl-thyroxine-methyl ester, reference compound]
stability in water / usable time after dilution into the assay buffer [2]: only gives useful assay results within hours of dilution into the assay buffer

Compound: N[C@@H](Cc1cc(I)c(Oc2cc(I)c(O)c(I)c2)c(I)c1)C(=O)O [T4, Thyroxine]
percentage of T4 bound to TBG (TBG [3]): approximately 70%
percentage of T4 bound to TBPA (TBPA): 20-25%
percentage of T4 bound to Albumin (Albumin): 5-10%

Compound: O=C(O)CN(CCN(CC(=O)O)CC(=O)NC(Cc1cc(I)c(Oc2ccc(O)c(I)c2)c(I)c1)C(=O)O)CC(=O)O (stereo not shown) [T3.EDTA, 2-carboxy-6,9-dicarboxymethyl-1 3',5'di-iodo-4'(3"-iodo-4"-hydroxy)phenoxy phenyl 4-oxo-3,6,9-triazaundecan-11-oic acid]
binding to antisera relative to T3 [4]: equal, or better, binding than T3 itself

Compound: O=C(O)CN(CCN(CC(=O)O)CC(=O)NC(Cc1cc(I)c(Oc2cc(I)c(O)c(I)c2)c(I)c1)C(=O)O)CC(=O)O (stereo not shown) [^125 I-T4.EDTA]
% radioactivity in solid phase ([5]; free T4 0 ng/dl): 61.8%
% radioactivity in solid phase ([5]; free T4 0.45 ng/dl): 41.2%
% radioactivity in solid phase ([5]; free T4 0.95 ng/dl): 30.8%
% radioactivity in solid phase ([5]; free T4 1.9 ng/dl): 21.1%
% radioactivity in solid phase ([5]; free T4 4.9 ng/dl): 12.4%
% radioactivity in solid phase ([5]; free T4 9.0 ng/dl): 9.3%
